Test results as given in patent publication US7385026B1, “Modified ghrelin polypeptides” (priority 1999, dated 2008).
“And” between values parts separate entries of the source, which are not always exact repeats. Identical values can stand only once. Like-named read-outs stand apart in the source and are kept apart here. Peptide text beside a SMILES is read from it. * marks the point of attachment. Octanoyl = CCCCCCCC(=O)*

Key:
[1] = test system: IGS-SD strain rats; test: GH-releasing activity of long-chain ghrelin derivatives in rat (plasma GH 15 min after i.v.); assay type: in vivo; settings: dose 100 nmol/kg i.v.
Procedure: Fifteen minutes after administration, plasma was collected, and the concentration of GH in plasma was measured by radioimmunoassay (Biotrak/Amersham). Separately, 0.2% bovine serum albumin (BSA)-physiological saline, 6 nmol/kg rGhrelin and hGhrelin, or 80 nmol/kg Ipamorelin (Compound 80) was administered into other rats as the control, respectively, and the concentrations of GH in plasma in 15 minutes after administration were compared (for each sample, n=3).

[2] = biological target: T1, rat GHS-receptor (GHR-R) (Rattus norvegicus, UniProt O08725); test: Ca-releasing activity (increase in intracellular calcium) in CHO-GHSR62 cells, FLIPR; assay type: cell-based
T1 construct: A full-length cDNA for rat GHR-R was obtained by RT-PCR; expressed in transfected cells
T1 sequence (O08725 whole entry): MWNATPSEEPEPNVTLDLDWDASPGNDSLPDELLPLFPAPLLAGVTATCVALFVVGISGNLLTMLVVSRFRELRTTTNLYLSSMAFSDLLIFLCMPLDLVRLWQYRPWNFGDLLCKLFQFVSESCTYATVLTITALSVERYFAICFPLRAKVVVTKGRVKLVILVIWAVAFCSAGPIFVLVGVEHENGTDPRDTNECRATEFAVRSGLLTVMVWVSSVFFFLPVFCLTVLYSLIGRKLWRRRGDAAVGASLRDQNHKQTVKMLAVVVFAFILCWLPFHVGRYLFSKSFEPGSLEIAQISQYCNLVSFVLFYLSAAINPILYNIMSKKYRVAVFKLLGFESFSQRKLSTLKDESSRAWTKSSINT
In short: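 CHO cells stably expressing full-length rat GHS-R (CHO-GHSR62) were cultured 12–15 h, loaded with 4 μM Fluo4 for 1 h and washed with Hank's BSS containing 20 mM Hepes and 2.5 mM probenecid. Ca-releasing activity of ghrelin peptides, fragments or derivatives was read by FLIPR as the fluorescence change after sample addition.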

[3] = CHO-GHSR62 cells (CHO cells expressing rat GHS receptor), FLIPR, read-out: Ca-releasing activity EC50

| SMILES | EC50 [2, 3] | other results |
| --- | --- | --- |
| CC(C)C[C@H](NC(=O)[C@H](CCCCN)NC(=O)[C@H](C)NC(=O)[C@@H]1CCCN1C(=O)[C@@H]1CCCN1C(=O)[C@H](CCCCN)NC(=O)[C@H](CCCCN)NC(=O)[C@H](CO)NC(=O)[C@H](CCC(=O)O)NC(=O)[C@H](CCCCN)NC(=O)[C@H](CCCNC(=N)N)NC(=O)[C@H](CCC(N)=O)NC(=O)[C@H](CCC(N)=O)NC(=O)[C@@H](NC(=O)[C@H](CCCNC(=N)N)NC(=O)[C@H](CCC(N)=O)NC(=O)[C@H](Cc1c[nH]cn1)NC(=O)[C@H](CCC(=O)O)NC(=O)[C@@H]1CCCN1C(=O)[C@H](CO)NC(=O)[C@H](CC(C)C)NC(=O)[C@H](Cc1ccccc1)NC(=O)[C@H](Cc1ccc2ccccc2c1)NC(=O)[C@H](CO)NC(=O)CN)C(C)C)C(=O)N[C@@H](CCC(N)=O)C(=O)N1CCC[C@H]1C(=O)N[C@@H](CCCNC(=N)N)C(=O)O [Compound 65, [2-^LNal^3]-hGhrelin] | 0.0082 µM | GH level in plasma in 15 min. after administration, M ± S.D. ([1]; n=3): 1524 ± 147 ng/mL; GH level in plasma in 15 min. after administration, individual rats (Rat 1-3) ([1]; rats under Nembutal): 1637 ng/mL and 1576 ng/mL and 1357 ng/mL |
| CCCCCCCC(=O)O[C@H](C)[C@H](NC(=O)[C@H](CO)NC(=O)CN)C(=O)N[C@@H](Cc1ccccc1)C(=O)N[C@@H](CC(C)C)C(=O)N[C@@H](CO)C(=O)N1CCC[C@H]1C(=O)N[C@@H](CCC(=O)O)C(=O)N[C@@H](Cc1c[nH]cn1)C(=O)N[C@@H](CCC(N)=O)C(=O)N[C@@H](CCCNC(=N)N)C(=O)N[C@H](C(=O)N[C@@H](CCC(N)=O)C(=O)N[C@@H](CCC(N)=O)C(=O)N[C@@H](CCCNC(=N)N)C(=O)N[C@@H](CCCCN)C(=O)N[C@@H](CCC(=O)O)C(=O)N[C@@H](CO)C(=O)N[C@@H](CCCCN)C(=O)N[C@@H](CCCCN)C(=O)N1CCC[C@H]1C(=O)N1CCC[C@H]1C(=O)N[C@@H](C)C(=O)N[C@@H](CCCCN)C(=O)N[C@@H](CC(C)C)C(=O)N[C@@H](CCC(N)=O)C(=O)N1CCC[C@H]1C(=O)N[C@@H](CCCNC(=N)N)C(=O)O)C(C)C [Compound 59, [Thr^3(Octanoyl)]-hGhrelin] | 0.01 µM |  |
| CCCCCCCC(=O)OC[C@H](NC(=O)[C@H](CO)NC(=O)CN)C(=O)N[C@@H](Cc1ccccc1)C(=O)N[C@@H](CC(C)C)C(=O)N[C@@H](CO)C(=O)N1CCC[C@H]1C(=O)N[C@@H](CCC(=O)O)C(=O)N[C@@H](Cc1c[nH]cn1)C(=O)N[C@@H](CCC(N)=O)C(=O)N[C@@H](CCCCN)C(=O)N[C@@H](C)C(=O)N[C@@H](CCC(N)=O)C(=O)N[C@@H](CCCNC(=N)N)C(=O)N[C@@H](CCCCN)C(=O)N[C@@H](CCC(=O)O)C(=O)N[C@@H](CO)C(=O)N[C@@H](CCCCN)C(=O)N[C@@H](CCCCN)C(=O)N1CCC[C@H]1C(=O)N1CCC[C@H]1C(=O)N[C@@H](C)C(=O)N[C@@H](CCCCN)C(=O)N[C@@H](CC(C)C)C(=O)N[C@@H](CCC(N)=O)C(=O)N1CCC[C@H]1C(=O)N[C@@H](CCCNC(=N)N)C(=O)O [Compound 22, [des Gln^14]-rGhrerin] (H-GSS(Octanoyl)FLSPEHQKAQRKESKKPPAKLQPR-OH; N-terminus and C-terminus assumed) | 0.0015 µM | Ca-releasing activity (in words) ([2]; CHO-GHSR62 cells, listed as Ghrelin-27): completely the same Ca-releasing activity |
| CCCCCCCC(=O)OC[C@H](NC(=O)[C@H](CCCCN)NC(=O)CN)C(=O)N[C@@H](Cc1ccccc1)C(=O)N[C@@H](CC(C)C)C(=O)N[C@@H](CO)C(=O)N1CCC[C@H]1C(N)=O [Compound 46, [Lys^2]-Ghrelin (1-7)-amide] (H-GKS(Octanoyl)FLSP-NH2) | 0.024 µM |  |
| CCCCCCCCOC[C@H](NC(=O)CCCCN)C(=O)N[C@@H](Cc1ccccc1)C(=O)N[C@@H](CC(C)C)C(=O)NCC [Compound 83, [N-Aminopentanoyl, Ser^3(Octyl)]-Ghrelin (3-5)-ethylamide] | 0.022 µM |  |
| CCCC(=O)OC[C@H](NC(=O)[C@H](CO)NC(=O)CN)C(=O)N[C@@H](Cc1ccccc1)C(=O)N[C@@H](CC(C)C)C(=O)N[C@@H](CO)C(=O)N1CCC[C@H]1C(=O)N[C@@H](CCC(=O)O)C(=O)N[C@@H](Cc1c[nH]cn1)C(=O)N[C@@H](CCC(N)=O)C(=O)N[C@@H](CCCCN)C(=O)N[C@@H](C)C(=O)N[C@@H](CCC(N)=O)C(=O)N[C@@H](CCC(N)=O)C(=O)N[C@@H](CCCNC(=N)N)C(=O)N[C@@H](CCCCN)C(=O)N[C@@H](CCC(=O)O)C(=O)N[C@@H](CO)C(=O)N[C@@H](CCCCN)C(=O)N[C@@H](CCCCN)C(=O)N1CCC[C@H]1C(=O)N1CCC[C@H]1C(=O)N[C@@H](C)C(=O)N[C@@H](CCCCN)C(=O)N[C@@H](CC(C)C)C(=O)N[C@@H](CCC(N)=O)C(=O)N1CCC[C@H]1C(=O)N[C@@H](CCCNC(=N)N)C(=O)O [Compound 10, [Ser^3(Butyryl)]-rGhrelin] | 0.28 µM |  |
| CCCCCCCC(=O)OC[C@H](NC(=O)[C@H](CO)NC(=O)CN)C(=O)N[C@@H](Cc1ccccc1)C(=O)N[C@@H](CC(C)C)C(N)=O [Compound 32, Ghrelin (1-5)-amide] (H-GSS(Octanoyl)FL-NH2) | 0.0062 µM | Ca-releasing activity relative to ghrelin(1-4) amide [2]: about 26 times |
| CCCCCCCC(=O)OC[C@H](NC(=O)[C@H](CO)NC(=O)CN)C(=O)N[C@@H](Cc1ccccc1)C(=O)N[C@@H](CC(C)C)C(=O)N[C@@H](CO)C(=O)N1CCC[C@H]1C(=O)N[C@@H](CCC(=O)O)C(N)=O [Compound 28, Ghrelin (1-8)-amide] | 0.013 µM |  |
| CCCCCCCC(=O)OC[C@H](NC(=O)[C@H](CO)NC(=O)CN)C(=O)N[C@@H](Cc1ccccc1)C(=O)N[C@@H](CC(C)C)C(=O)N[C@@H](CO)C(=O)N1CCC[C@H]1C(=O)N[C@@H](CCCNC(=N)N)C(N)=O [Compound 36, [Arg^8]-Ghrelin (1-8)-amide] (H-GSS(Octanoyl)FLSPR-NH2) | 0.0011 µM |  |
| CCCCCCCC(=O)OC[C@H](NC(=O)[C@H](CO)NC(=O)CN)C(=O)N[C@@H](Cc1ccccc1)C(=O)N[C@@H](CC(C)C)C(=O)N[C@@H](CO)C(=O)N1CCC[C@H]1C(=O)N[C@@H](CCC(=O)O)C(=O)N[C@@H](Cc1c[nH]cn1)C(=O)N[C@@H](CCC(N)=O)C(=O)N[C@@H](CCCNC(=N)N)C(=O)N[C@H](C(=O)N[C@@H](CCC(N)=O)C(=O)N[C@@H](CCC(N)=O)C(=O)N[C@@H](CCCNC(=N)N)C(=O)O)C(C)C [Compound 20, hGhrelin (1-15)] | 0.007 µM |  |
| CCCCCCCC(=O)OC[C@H](NC(=O)[C@H](CO)NC(=O)CN)C(=O)N[C@@H](Cc1ccccc1)C(=O)N[C@@H](CC(C)C)C(=O)N[C@@H](CO)C(=O)N1CCC[C@H]1C(=O)N[C@@H](CCC(=O)O)C(=O)N[C@@H](Cc1c[nH]cn1)C(=O)N[C@@H](CCC(N)=O)C(=O)N[C@@H](CCCCN)C(=O)O [Compound 24, rGbrelin (1-11)] |  | EC50 ([2]; Table 3, Example 9: protease fragments or synthetic peptides, CHO-GHSR62 cells, read-out: Ca-releasing activity (EC50)): 0.015 µM |
| CCCCCCCC(=O)OC[C@H](NC(=O)CNC(=O)CN)C(=O)N[C@@H](Cc1ccccc1)C(=O)N[C@@H](CC(C)C)C(=O)N[C@@H](CO)C(=O)N1CCC[C@H]1C(N)=O [Compound 47, [Gly^2]-Ghrelin (1-7)-amide] (H-GGS(Octanoyl)FLSP-NH2) | 0.078 µM |  |
| CCCCCCCC(=O)OC[C@H](NC(=O)[C@H](CO)NC(=O)CN)C(=O)N[C@@H](Cc1ccccc1)C(=O)N[C@@H](CC(C)C)C(=O)N[C@@H](CO)C(=O)N1CCC[C@H]1C(=O)N[C@@H](CCC(=O)O)C(=O)N[C@@H](Cc1c[nH]cn1)C(N)=O [Compound 3, Ghrelin (1-9)-amide] (H-GSS(Octanoyl)FLSPEH-NH2) | 0.0054 µM | Ca-releasing activity of ghrelin (1-9) after amidation relative to before amidation [2]: about 7 times |
| CCCCCCCC(=O)OC[C@H](NC(=O)[C@H](CO)NC(=O)CN)C(=O)N[C@@H](Cc1ccccc1)C(=O)N[C@@H](CC(C)C)C(=O)N[C@@H](CO)C(=O)N1CCC[C@H]1C(=O)N[C@@H](CCC(=O)O)C(=O)N[C@@H](Cc1c[nH]cn1)C(=O)N[C@@H](CCC(N)=O)C(=O)N[C@@H](CCCCN)C(=O)N[C@@H](C)C(=O)N[C@@H](CCC(N)=O)C(=O)N[C@@H](CCC(N)=O)C(=O)N[C@@H](CCCNC(=N)N)C(=O)O [Compound 21, rGhrelin (1-15)] | 0.0086 µM |  |
| CCCCCCCC(=O)OC[C@H](NC(=O)[C@H](CO)NC(=O)CNC(C)=O)C(=O)N[C@@H](Cc1ccccc1)C(=O)N[C@@H](CC(C)C)C(=O)N[C@@H](CO)C(=O)N1CCC[C@H]1C(=O)N[C@@H](CCC(=O)O)C(=O)N[C@@H](Cc1c[nH]cn1)C(=O)N[C@@H](CCC(N)=O)C(=O)O [Compound 41, [N-Acetyl]-Ghrelin (1-10)] | > 10 µM |  |
| CCCCCCCC(=O)OC[C@H](NC(=O)[C@H](CO)NC(=O)CN)C(=O)N[C@@H](Cc1ccccc1)C(=O)N[C@@H](CC(C)C)C(=O)N[C@@H](CCCCN)C(N)=O [Compound 37, [Lys^6]-Ghrelin (1-6)-amide] (H-GSS(Octanoyl)FLK-NH2) | 0.012 µM |  |
| CCCCCCCNC(=O)C[C@H](NC(=O)[C@H](CO)NC(=O)CN)C(=O)N[C@@H](Cc1ccccc1)C(=O)N[C@@H](CC(C)C)C(=O)N[C@@H](CO)C(=O)N1CCC[C@H]1C(=O)N[C@@H](CCC(=O)O)C(=O)N[C@@H](Cc1c[nH]cn1)C(=O)N[C@@H](CCC(N)=O)C(=O)N[C@@H](CCCNC(=N)N)C(=O)N[C@H](C(=O)N[C@@H](CCC(N)=O)C(=O)N[C@@H](CCC(N)=O)C(=O)N[C@@H](CCCNC(=N)N)C(=O)N[C@@H](CCCCN)C(=O)N[C@@H](CCC(=O)O)C(=O)N[C@@H](CO)C(=O)N[C@@H](CCCCN)C(=O)N[C@@H](CCCCN)C(=O)N1CCC[C@H]1C(=O)N1CCC[C@H]1C(=O)N[C@@H](C)C(=O)N[C@@H](CCCCN)C(=O)N[C@@H](CC(C)C)C(=O)N[C@@H](CCC(N)=O)C(=O)N1CCC[C@H]1C(=O)N[C@@H](CCCNC(=N)N)C(=O)O)C(C)C [Compound 55, [Asp^3(NH-Heptyl)]-hGhrelin] | 0.011 µM |  |
